Results reported in ChEMBL document CHEMBL1938350, “Recent progress in biological activities of synthesized phenothiazines” (Eur J Med Chem, 2011).
In brackets after ≈: the same amount, converted by molar mass.

Experiments:
[1] = Potentiation of doxorubicin-induced cytotoxicity against human A2780/DX3 cells after 16 hrs; type: functional
[2] = Cytotoxicity against human colon cancer cells; type: functional; conditions: Cancer cell lines, read-out: LC50 (the source's name)
[3] = Cytotoxicity against human leukemia cells; type: functional; conditions: Leukemia cell
[4] = Antiplatelet activity in rabbit platelets assessed as inhibition of arachidonic acid-induced platelet aggregation; type: functional, cell-based, Oryctolagus cuniculus
[5] = Antiplatelet activity in rabbit platelets assessed as inhibition of collagen-induced platelet aggregation; type: functional, cell-based, Oryctolagus cuniculus
WI-38 [6] = assay: Antimitotic activity against human non-transformed WI38 cells assessed as monoastral spindle formation at 5 uM after 1 day; type: functional
[7] = biological target: T1, Kinesin-like protein KIF11 (Homo sapiens, UniProt P52732); assay: Inhibition of mitotic kinesin Eg5 in human transformed WI38VA13 cells assessed as inhibition of microtubule-activated ATPase activity; type: cell-based
T1 sequence (P52732 whole entry): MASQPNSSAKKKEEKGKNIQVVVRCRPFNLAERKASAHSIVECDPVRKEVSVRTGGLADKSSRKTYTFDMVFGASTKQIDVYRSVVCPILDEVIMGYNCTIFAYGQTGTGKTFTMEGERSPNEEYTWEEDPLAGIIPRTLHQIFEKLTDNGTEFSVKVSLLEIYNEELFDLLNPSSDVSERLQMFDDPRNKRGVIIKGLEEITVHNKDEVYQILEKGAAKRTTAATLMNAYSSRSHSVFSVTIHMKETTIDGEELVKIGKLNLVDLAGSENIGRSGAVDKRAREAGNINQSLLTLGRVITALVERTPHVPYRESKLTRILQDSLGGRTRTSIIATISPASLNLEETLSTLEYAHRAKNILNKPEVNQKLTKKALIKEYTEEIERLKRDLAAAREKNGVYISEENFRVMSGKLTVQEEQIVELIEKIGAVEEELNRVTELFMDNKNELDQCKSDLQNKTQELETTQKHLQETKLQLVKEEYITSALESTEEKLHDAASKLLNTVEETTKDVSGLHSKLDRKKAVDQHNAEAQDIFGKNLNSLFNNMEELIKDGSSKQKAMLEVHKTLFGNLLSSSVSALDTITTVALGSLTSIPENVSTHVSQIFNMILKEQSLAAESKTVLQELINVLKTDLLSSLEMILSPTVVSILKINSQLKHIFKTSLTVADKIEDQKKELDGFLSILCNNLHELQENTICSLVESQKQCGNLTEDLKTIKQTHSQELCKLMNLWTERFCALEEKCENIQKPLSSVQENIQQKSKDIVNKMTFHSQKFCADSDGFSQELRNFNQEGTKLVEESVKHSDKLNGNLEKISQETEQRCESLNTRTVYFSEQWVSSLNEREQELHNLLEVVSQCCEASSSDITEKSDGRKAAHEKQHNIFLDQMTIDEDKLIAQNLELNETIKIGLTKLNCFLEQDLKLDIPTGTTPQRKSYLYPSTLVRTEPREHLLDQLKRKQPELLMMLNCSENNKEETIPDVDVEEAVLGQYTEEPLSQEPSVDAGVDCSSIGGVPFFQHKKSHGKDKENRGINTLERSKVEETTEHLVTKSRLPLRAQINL

WI-38 [8] = assay: Antimitotic activity against human non-transformed WI38 cells assessed as cell viability at 5 uM after 1 day; type: functional; conditions: WI-38, 24 h, read-out: Activity
Rattus norvegicus = species on record: Rattus norvegicus; assay: Anticonvulsant activity in rat assessed as inhibition of seizures; type: functional
[9] = Toxicity in rat; type: organism-based; conditions: in vivo, read-out: ALD50
Mus musculus = assay: Antiinflammatory activity in mouse assessed as inhibition of edema formation; type: functional
IGROV-1 = assay: Cytotoxicity against human IGROV1 cells; type: functional
[10] = tested on: Trichophyton mentagrophytes; assay: Antifungal activity against Trichophyton mentagrophytes; type: functional
Saccharomyces cerevisiae = assay: Antifungal activity against Saccharomyces cerevisiae; type: functional
SK-MEL-5 = assay: Cytotoxicity against human SK-MEL-5 cells; type: functional
[11] = Oryctolagus cuniculus, Platelet

## COc1ccc2c(c1)N(C(=O)CCSCC1CCCN3CCCCC13)c1ccccc1S2 (stereo unspecified)
[1]
  fold change (FC): 3.96

## O=C(NCCCl)NCCCCN1c2ccccc2Sc2ccc(Cl)cc21
[2]
  CC50: 5700 nM
[3]
  GI50: 1400 nM

## NNC(=O)N1c2ccccc2Sc2ccccc21
[4]
  inhibition (INH): 100%
[5]
  inhibition (INH): 100%

## O=C(CSCC1CCCN2CCCCC12)N1c2ccccc2Sc2ccc(C(F)(F)F)cc21 (stereo unspecified)
[1]
  fold change (FC): 3.96

## O=C(CSCC1CCCN2CCCCC12)N1c2ccccc2Sc2ccc(Cl)cc21 (stereo unspecified)
[1]
  fold change (FC): 3.96

## OC(CNCCc1ccccc1)CN1c2ccccc2Sc2ccc(Cl)cc21 (stereo unspecified)
WI-38 [6]
  Activity: 90%
[7]
  IC50: 1520 nM
WI-38 [8]
  viability at 5 µM: 90%

## O=C1NC(=S)NC(=O)C1CNc1nnc(CN2c3ccccc3Sc3ccccc32)s1
Rattus norvegicus
  inhibition (INH): 80%
[9]
  LD50: 1000 mg/kg

## O=C(N/N=C/C1CCCO1)N1c2ccccc2Sc2ccccc21 (stereo unspecified)
[4]
  inhibition (INH): 100%
[5]
  inhibition (INH): 100%

## O=C(N/N=C/C1CCCS1)N1c2ccccc2Sc2ccccc21 (stereo unspecified)
[4]
  inhibition (INH): 100%
[5]
  inhibition (INH): 100%

## O=C(O)c1ccc(/C=N/NC(=O)N2c3ccccc3Sc3ccccc32)cc1
[4]
  inhibition (INH): 100%
[5]
  inhibition (INH): 100%
Mus musculus
  inhibition (INH): 51%

## O=C1N=C([O-])NC1(c1ccccc1)c1ccccc1.[Na+] [PHENYTOIN SODIUM]
[9]
  LD50: 1000 mg/kg

## CN(C)c1ccc(/C=N/NC(=O)N2c3ccccc3Sc3ccccc32)cc1
[4]
  inhibition (INH): 100%
[5]
  inhibition (INH): 100%
Mus musculus
  inhibition (INH): 20.5%

## CCN(CC)CCN1c2nc3ccccc3cc2Sc2cc3ccccc3nc21
IGROV-1
  GI50: 190 nM

## O=C1NC(=O)C(CNc2nnc(CN3c4ccccc4Sc4ccccc43)o2)C(=O)N1
Rattus norvegicus
  inhibition (INH): 80%
[9]
  LD50: 1000 mg/kg

## O=C(N/N=C/c1ccccc1)N1c2ccccc2Sc2ccccc21
[4]; [11]
  IC50: 2300 nM
[5]; [11]
  IC50: 2300 nM

## NCCCCN1c2ccccc2Sc2ccc(C(F)(F)F)cc21
[10]
  MIC: 1.5 µg/mL (≈ 4.43 µM)
Saccharomyces cerevisiae
  MIC: 0.4 µg/mL (≈ 1.18 µM)

## O=C(NCCCl)NCCN1c2nc3ccccc3cc2Sc2cc3ccccc3nc21
SK-MEL-5
  GI50: 88 nM
